Laboratory results reported in patent US11053204B2, “Pyrimidinyloxy benzene derivatives as herbicides” (FMC Corporation, priority 2015, dated 2021).

How the values were obtained:
Format in all cases: in vivo
[1] = test system: giant foxtail (Setaria faberii); experiment: Test A postemergence, visual injury rating; conditions: 1000 g ai/ha, 0 is no effect, 100 is complete control
How it was run: (§1)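 Greenhouse pot test, loam/sand soil. Formulation: non-phytotoxic solvent mix plus surfactant. Pre: directed spray onto soil after sowing. Post: plants at 1–2 leaf, 2–10 cm. Rated visually vs untreated controls at ~10 d, 0 (no effect) to 100 (complete control).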

[2] = test system: large (Lg) crabgrass (Digitaria sanguinalis); experiment: Test A postemergence, visual injury rating; conditions: 1000 g ai/ha, 0 is no effect, 100 is complete control
How it was run: as §1

[3] = test system: wheat (Triticum aestivum); experiment: Test A postemergence, visual injury rating; conditions: 1000 g ai/ha, 0 is no effect, 100 is complete control
How it was run: as §1

[4] = test system: pigweed (Amaranthus retroflexus); experiment: Test A postemergence, visual injury rating; conditions: 1000 g ai/ha, 0 is no effect, 100 is complete control
How it was run: as §1

[5] = test system: barnyardgrass (Echinochloa crus-galli); experiment: Test A postemergence, visual injury rating; conditions: 1000 g ai/ha, 0 is no effect, 100 is complete control
How it was run: as §1

corn (Zea mays) [6] = experiment: Test A postemergence, visual injury rating; conditions: 1000 g ai/ha, 0 is no effect, 100 is complete control
How it was run: as §1

[7] = test system: velvetleaf (Abutilon theophrasti); experiment: Test A postemergence, visual injury rating; conditions: 1000 g ai/ha, 0 is no effect, 100 is complete control
How it was run: as §1

[8] = test system: giant foxtail (Setaria faberii); experiment: Test A preemergence, visual injury rating; conditions: 1000 g ai/ha, 0 to 100 scale (0 no effect, 100 complete control)
How it was run: as §1

[9] = test system: large (Lg) crabgrass (Digitaria sanguinalis); experiment: Test A preemergence, visual injury rating; conditions: 1000 g ai/ha, 0 to 100 scale (0 no effect, 100 complete control)
How it was run: as §1

[10] = test system: wheat (Triticum aestivum); experiment: Test A preemergence, visual injury rating; conditions: 1000 g ai/ha, 0 to 100 scale (0 no effect, 100 complete control)
How it was run: as §1

[11] = test system: pigweed (Amaranthus retroflexus); experiment: Test A preemergence, visual injury rating; conditions: 1000 g ai/ha, 0 to 100 scale (0 no effect, 100 complete control)
How it was run: as §1

[12] = test system: barnyardgrass (Echinochloa crus-galli); experiment: Test A preemergence, visual injury rating; conditions: 1000 g ai/ha, 0 to 100 scale (0 no effect, 100 complete control)
How it was run: as §1

corn (Zea mays) [13] = experiment: Test A preemergence, visual injury rating; conditions: 1000 g ai/ha, 0 to 100 scale (0 no effect, 100 complete control)
How it was run: as §1

[14] = test system: velvetleaf (Abutilon theophrasti); experiment: Test A preemergence, visual injury rating; conditions: 1000 g ai/ha, 0 to 100 scale (0 no effect, 100 complete control)
How it was run: as §1

[15] = test system: ducksalad (Heteranthera limosa); experiment: Test B flooded paddy test, plant response rating; conditions: 250 g ai/ha; Flood; scale of 0 to 100 where 0 is no effect and 100 is complete control; 13 to 15 days
How it was run: (§2)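 Test compounds are applied straight into paddy water held 3 cm above the soil surface, with that flood maintained for the whole test. After 13 to 15 days in the greenhouse, each species is scored visually relative to controls.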

rice (Oryza sativa) = experiment: Test B flooded paddy test, plant response rating; conditions: 250 g ai/ha; Flood; scale of 0 to 100 where 0 is no effect and 100 is complete control; 13 to 15 days
How it was run: as §2

[16] = test system: barnyardgrass (Echinochloa crus-galli); experiment: Test B flooded paddy test, plant response rating; conditions: 250 g ai/ha; Flood; scale of 0 to 100 where 0 is no effect and 100 is complete control; 13 to 15 days
How it was run: as §2

[17] = test system: sedge, umbrella (small-flower umbrella sedge, Cyperus difformis); experiment: Test B flooded paddy test, plant response rating; conditions: 250 g ai/ha; Flood; scale of 0 to 100 where 0 is no effect and 100 is complete control; 13 to 15 days
How it was run: as §2

In the case of CON=C(C)c1ccccc1Oc1ncc(Cl)cn1 [Compound 55], the “Foxtail, Giant plant response rating (0 to 100 scale)” value [1] is reported as 10, the “Crabgrass, Large plant response rating (0 to 100 scale)” value [2] is reported as 0 and the “Wheat plant response rating (0 to 100 scale)” value [3] is reported as 0. For the same compound, the “Pigweed plant response rating (0 to 100 scale)” value [4] was 0, the “Barnyardgrass plant response rating (0 to 100 scale)” value [5] was 0 and the “Corn plant response rating (0 to 100 scale)” value (corn (Zea mays) [6]) was 0. The “Velvetleaf plant response rating (0 to 100 scale)” value [7] was 10, the “Foxtail, Giant plant response rating” value [8] was 0 and the “Crabgrass, Large plant response rating” value [9] was 0. For the same compound, the “Wheat plant response rating” value [10] was 0, the “Pigweed plant response rating” value [11] was 0 and the “Barnyardgrass plant response rating” value [12] was 0. The “Corn plant response rating” value (corn (Zea mays) [13]) was 0 and the “Velvetleaf plant response rating” value [14] was 0.

For CC(=NOC(C)C)c1ccccc1Oc1ncc(Cl)cn1 [Compound 56], the “Foxtail, Giant plant response rating (0 to 100 scale)” value [1] was 70, the “Crabgrass, Large plant response rating (0 to 100 scale)” value [2] was 40 and the “Wheat plant response rating (0 to 100 scale)” value [3] was 10. For the same compound, the “Pigweed plant response rating (0 to 100 scale)” value [4] was 60, the “Barnyardgrass plant response rating (0 to 100 scale)” value [5] was 50 and the “Corn plant response rating (0 to 100 scale)” value (corn (Zea mays) [6]) was 30. For the same compound, the “Velvetleaf plant response rating (0 to 100 scale)” value [7] was 100, the “Plant response rating, Ducksalad” value [15] was 0 and the “Plant response rating, Rice” value (rice (Oryza sativa)) was 0. For the same compound, the “Plant response rating, Barnyardgrass” value [16] was 0, the “Plant response rating, Sedge, Umbrella” value [17] was 0 and the “Foxtail, Giant plant response rating” value [8] was 100. For the same compound, the “Crabgrass, Large plant response rating” value [9] was 100, the “Wheat plant response rating” value [10] was 0 and the “Pigweed plant response rating” value [11] was 100. The “Barnyardgrass plant response rating” value [12] was 90, the “Corn plant response rating” value (corn (Zea mays) [13]) was 0 and the “Velvetleaf plant response rating” value [14] was 90.
